# Assay results reported in PubChem BioAssay AID328 (DTP/NCI, 2004).
# Where “and” joins values, the source holds several entries; their conditions need not be identical. Equal entries are not always repeated. Inconclusive results and toxic doses are left out.
# Tested on: BDF1 mice, P388 leukemia ip, median survival T/C
# Assay: NCI In Vivo Anticancer Drug Screen. Data for tumor model P388 Leukemia (intraperitoneal) in B6D2F1 (BDF1) mice
# Settings: endpoint: median survival time, higher = longer survival
# Outline: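 Survival ratio, drug arm over vehicle arm, in mice with a transplanted tumour.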
# [1] = dose: 50.0 mg/kg/injection, schedule: Q01DX005 (ip), vehicle: saline with Tween-80
# [2] = dose: 100.0 mg/kg/injection, schedule: Q01DX005 (ip), vehicle: saline with Tween-80
# [3] = dose: 100.0 mg/kg/injection, schedule: Q01DX009 (ip), vehicle: Klucel (hydroxypropylcellulose) (HPC)
# [4] = dose: 200.0 mg/kg/injection, schedule: Q01DX005 (ip), vehicle: saline with Tween-80
# [5] = dose: 50.0 mg/kg/injection, schedule: Q01DX009 (ip), vehicle: saline with Tween-80
# [6] = dose: 100.0 mg/kg/injection, schedule: Q01DX009 (ip), vehicle: saline with Tween-80
# [7] = dose: 100.0 mg/kg/injection, schedule: Q04DX003 (ip), vehicle: saline with Tween-80
# [8] = dose: 200.0 mg/kg/injection, schedule: Q01DX009 (ip), vehicle: saline with Tween-80
# [9] = dose: 1.56 mg/kg/injection, schedule: Q01DX009 (ip), vehicle: saline
# [10] = dose: 25.0 mg/kg/injection, schedule: Q04DX003 (ip), vehicle: saline with Tween-80
# [11] = dose: 50.0 mg/kg/injection, schedule: Q04DX003 (ip), vehicle: saline with Tween-80
smiles,measurement,setting,value
COc1cc(N=Nc2ccc(O)c3ncccc23)c(OC)cc1N=Nc1ccc([N+](=O)[O-])cc1,T/C,[1],101 % of control
same,T/C,[2],111 % of control
O=C(C[n+]1cc2ccccc2c2ccccc21)c1ccccc1,T/C,"dose: 25.0 mg/kg/injection, schedule: Q01DX009 (ip), vehicle: Klucel (hydroxypropylcellulose) (HPC)",104 % of control
same,T/C,"dose: 35.0 mg/kg/injection, schedule: Q01DX009 (ip), vehicle: Klucel (hydroxypropylcellulose) (HPC)",100 % of control and 108 % of control
same,T/C,"dose: 50.0 mg/kg/injection, schedule: Q01DX009 (ip), vehicle: Klucel (hydroxypropylcellulose) (HPC)",100 % of control and 120 % of control
same,T/C,"dose: 75.0 mg/kg/injection, schedule: Q01DX009 (ip), vehicle: Klucel (hydroxypropylcellulose) (HPC)",115 % of control
same,T/C,[3],114 % of control
CCN(CC)C(=S)Oc1cc(C)nc(N2CCCC2)n1,T/C,[1],95 % of control
same,T/C,[2],101 % of control
same,T/C,[4],97 % of control
CC(=O)[C@H]1[C@H](O)C[C@H]2[C@@H]3CCC4=CC(=O)CC[C@]4(C)[C@@]3(F)[C@@H](O)C[C@@]21C,T/C,"dose: 100.0 mg/kg/injection, schedule: Q04DX003 (ip), vehicle: saline",100 % of control
same,T/C,"dose: 200.0 mg/kg/injection, schedule: Q04DX003 (ip), vehicle: saline",113 % of control
same,T/C,"dose: 400.0 mg/kg/injection, schedule: Q04DX003 (ip), vehicle: saline",113 % of control
Nc1c(C(=O)O)[nH]c(=O)[nH]c1=O,T/C,[5],113 % of control
same,T/C,[6],219 % of control
Brc1ccc(-c2csc(Nc3nc(-c4ccc(Br)cc4)cs3)n2)cc1,T/C,[7],90 % of control
same,T/C,"dose: 200.0 mg/kg/injection, schedule: Q04DX003 (ip), vehicle: saline with Tween-80",90 % of control
same,T/C,"dose: 400.0 mg/kg/injection, schedule: Q04DX003 (ip), vehicle: saline with Tween-80",95 % of control
N#CCC(=O)O,T/C,"dose: 18.75 mg/kg/injection, schedule: Q01DX009 (ip), vehicle: saline with Tween-80",100 % of control
same,T/C,"dose: 37.5 mg/kg/injection, schedule: Q01DX009 (ip), vehicle: saline with Tween-80",100 % of control
same,T/C,"dose: 75.0 mg/kg/injection, schedule: Q01DX009 (ip), vehicle: saline with Tween-80",90 % of control
O=S1(=O)CC(Cl)(Br)C1 (tested in a mixture with another compound),T/C,[3],91 % of control
CC(=O)Nc1ccc(N=Nc2c(C)nn(C(=N)N)c2C)cc1,T/C,"dose: 25.0 mg/kg/injection, schedule: Q01DX009 (ip), vehicle: saline",97 % of control
same,T/C,"dose: 50.0 mg/kg/injection, schedule: Q01DX009 (ip), vehicle: saline",97 % of control
CC(C)=CCC/C(C)=C/CN1C(=O)C=CC1=O,T/C,"dose: 0.39 mg/kg/injection, schedule: Q01DX009 (ip), vehicle: water",94 % of control
same,T/C,"dose: 0.78 mg/kg/injection, schedule: Q01DX009 (ip), vehicle: water",100 % of control
same,T/C,"dose: 1.56 mg/kg/injection, schedule: Q01DX009 (ip), vehicle: water",112 % of control
same,T/C,"dose: 3.12 mg/kg/injection, schedule: Q01DX009 (ip), vehicle: water",112 % of control
same,T/C,"dose: 6.25 mg/kg/injection, schedule: Q01DX009 (ip), vehicle: water",111 % of control
same,T/C,"dose: 12.5 mg/kg/injection, schedule: Q01DX009 (ip), vehicle: water",89 % of control
CN1CCC/C(=C(/N)c2ccccc2)S1(=O)=O,T/C,[5],104 % of control
same,T/C,[6],100 % of control
same,T/C,[8],104 % of control
Cc1cc(Cl)ccc1Nc1sc(C(=O)c2cc3cc(Cl)ccc3o2)c(N)c1C#N,T/C,[5],104 % of control
same,T/C,[6],93 % of control
same,T/C,[8],89 % of control
Cc1ccc2c(c1)N=Cc1ccccc1O2,T/C,"dose: 50.0 mg/kg/injection, schedule: Q01DX009 (ip), vehicle: saline + alcohol",104 % of control
same,T/C,"dose: 100.0 mg/kg/injection, schedule: Q01DX009 (ip), vehicle: saline + alcohol",110 % of control
same,T/C,"dose: 200.0 mg/kg/injection, schedule: Q01DX009 (ip), vehicle: saline + alcohol",106 % of control
COc1c(OC)c(OC)c(C(=O)/C=C/c2ccccc2)c(OC)c1OC,T/C,"dose: 25.0 mg/kg/injection, schedule: Q01DX009 (ip), vehicle: saline with Tween-80",104 % of control
same,T/C,[5],104 % of control
same,T/C,[6],99 % of control
CC(=O)OCCN1CCN(CCCN2c3ccccc3Sc3ccc(C(F)(F)F)cc32)CC1,T/C,"dose: 0.69 mg/kg/injection, schedule: Q01DX009 (ip), vehicle: saline",104 % of control
same,T/C,"dose: 1.04 mg/kg/injection, schedule: Q01DX009 (ip), vehicle: saline",104 % of control
same,T/C,[9],120 % of control
same,T/C,"dose: 2.34 mg/kg/injection, schedule: Q01DX009 (ip), vehicle: saline",108 % of control
same,T/C,[10],117 % of control
same,T/C,[11],91 % of control
CC(C)(C)C1CCC(O)C(Cl)C1 (stereo unspecified),T/C,"dose: 50.0 mg/kg/injection, schedule: Q04DX003 (ip), vehicle: Klucel (hydroxypropylcellulose) (HPC)",95 % of control
same,T/C,"dose: 100.0 mg/kg/injection, schedule: Q04DX003 (ip), vehicle: Klucel (hydroxypropylcellulose) (HPC)",109 % of control
same,T/C,"dose: 200.0 mg/kg/injection, schedule: Q04DX003 (ip), vehicle: Klucel (hydroxypropylcellulose) (HPC)",109 % of control
CCN(CCO)c1ccc(N)cc1C,T/C,[9],100 % of control
same,T/C,"dose: 3.13 mg/kg/injection, schedule: Q01DX009 (ip), vehicle: saline",100 % of control
same,T/C,"dose: 6.25 mg/kg/injection, schedule: Q01DX009 (ip), vehicle: saline",90 % of control
CCCCCC[N+](CCCCCC)(CCCCCC)CCCCCC,T/C,"dose: 3.0 mg/kg/injection, schedule: Q01DX009 (ip), vehicle: saline with Tween-80",123 % of control
same,T/C,"dose: 6.0 mg/kg/injection, schedule: Q01DX009 (ip), vehicle: saline with Tween-80",116 % of control and 119 % of control
same,T/C,"dose: 6.25 mg/kg/injection, schedule: Q01DX009 (ip), vehicle: saline with Tween-80",114 % of control
same,T/C,"dose: 6.25 mg/kg/injection, schedule: Q04DX003 (ip), vehicle: saline with Tween-80",108 % of control
same,T/C,"dose: 12.5 mg/kg/injection, schedule: Q04DX003 (ip), vehicle: saline with Tween-80",95 % of control
same,T/C,[10],113 % of control
[Cl][Pt+2][Cl].[NH-]CC1(C[NH-])CCC1,T/C,"dose: 0.4 mg/kg/injection, schedule: Q01DX009 (ip), vehicle: suspension in saline",156 % of control
same,T/C,"dose: 0.79 mg/kg/injection, schedule: Q01DX009 (ip), vehicle: suspension in saline",154 % of control
same,T/C,"dose: 1.56 mg/kg/injection, schedule: Q01DX009 (ip), vehicle: suspension in saline",250 % of control
same,T/C,"dose: 3.12 mg/kg/injection, schedule: Q01DX009 (ip), vehicle: suspension in saline",250 % of control
same,T/C,"dose: 6.25 mg/kg/injection, schedule: Q01DX009 (ip), vehicle: suspension in saline",169 % of control
same,T/C,"dose: 12.5 mg/kg/injection, schedule: Q01DX009 (ip), vehicle: suspension in saline",104 % of control
CCOc1ccc([N+](=O)[O-])cc1CN(CC)CC,T/C,"dose: 5.0 mg/kg/injection, schedule: Q01DX009 (ip), vehicle: saline",104 % of control
same,T/C,"dose: 10.0 mg/kg/injection, schedule: Q01DX009 (ip), vehicle: saline",95 % of control and 100 % of control
same,T/C,"dose: 20.0 mg/kg/injection, schedule: Q01DX009 (ip), vehicle: saline",113 % of control
C=C1CCC2(C)C(O)CC3(C)C(CCC4C5(C)CCC(OC(C)=O)C(C)(C)C5CCC43C)C2C1C (stereo unspecified),T/C,"dose: 1.0 mg/kg/injection, schedule: Q01DX009 (ip), vehicle: saline + alcohol",97 % of control
same,T/C,"dose: 2.0 mg/kg/injection, schedule: Q01DX009 (ip), vehicle: saline + alcohol",106 % of control
same,T/C,"dose: 4.0 mg/kg/injection, schedule: Q01DX009 (ip), vehicle: saline + alcohol",92 % of control
O=C(O)C1(O)CC(O)C(O)C(O)C1 (stereo unspecified),T/C,"dose: 100.0 mg/kg/injection, schedule: Q04DX002 (ip), vehicle: saline with Tween-80",96 % of control
same,T/C,"dose: 200.0 mg/kg/injection, schedule: Q04DX002 (ip), vehicle: saline with Tween-80",94 % of control
same,T/C,"dose: 400.0 mg/kg/injection, schedule: Q04DX002 (ip), vehicle: saline with Tween-80",86 % of control
Cc1cc(-c2ccc(NC(=O)Nc3cccc(F)c3)c(C)c2)ccc1NC(=O)Nc1cccc(F)c1,T/C,[1],91 % of control
same,T/C,[2],86 % of control
same,T/C,[4],86 % of control
O=C1CC2(C(=O)N1CN1CCN(c3ccc(F)cc3)CC1)c1ccccc1-c1ccccc12 (tested in a mixture with another compound),T/C,[10],101 % of control and 107 % of control and 121 % of control
same,T/C,[11],91 % of control and 101 % of control
same,T/C,[7],97 % of control and 105 % of control
